Experiment: method code SF-AS, from DOI: 10.1016/s0045-6535(98)00132-5, PMID: 9753760

Row | Structure (SMILES) | logP
1 | CCOc1ccc(NC(=O)c2cccc([N+](=O)[O-])c2O)cc1 | 1.98
2 | Cc1ccc(Cl)cc1NC(=O)c1cccc([N+](=O)[O-])c1O | 2.24
3 | Cc1c(Cl)cccc1NC(=O)c1cccc([N+](=O)[O-])c1O | 2.32
4 | O=C(Nc1ccc(Cl)cc1)c1cccc([N+](=O)[O-])c1O | 2.16
5 | COc1ccc(NC(=O)c2cccc([N+](=O)[O-])c2O)cc1 | 1.83
6 | COc1ccc(NC(=O)c2cc([N+](=O)[O-])ccc2O)cc1 | 2.19
7 | Cc1ccc(NC(=O)c2cccc([N+](=O)[O-])c2O)cc1 | 1.94
8 | Cc1ccccc1NC(=O)c1cccc([N+](=O)[O-])c1O | 1.9
9 | O=C(Nc1ccc(Cl)cc1)c1cc([N+](=O)[O-])ccc1O | 2.54

Now from value to compound:

Row | logP | Structure (SMILES)
10 | 2.04 | CCOc1ccccc1NC(=O)c1cccc([N+](=O)[O-])c1O
11 | 2.34 | CCOc1ccccc1NC(=O)c1cc([N+](=O)[O-])ccc1O
12 | 2.64 | Cc1c(Cl)cccc1NC(=O)c1cc([N+](=O)[O-])ccc1O
13 | 2.61 | Cc1ccc(Cl)cc1NC(=O)c1cc([N+](=O)[O-])ccc1O
14 | 2.22 | Cc1ccc(NC(=O)c2cc([N+](=O)[O-])ccc2O)cc1

Reference: the SangsterLogP compilation
